Source: patent US20260028354A1, “TETRAHYDRONAPHTHALENE DERIVATIVES AS ESTROGEN RECEPTOR DEGRADERS” (REGENT OF THE UNIVERSITY OF MICHIGAN, priority 2022, published 2026)
Like-named read-outs stand apart in the source and are kept apart here.

How the values were obtained:
[1] = biological target: ER in MCF-7 cells (Homo sapiens (Human), UniProt P03372); assay: In-cell Western (ICW) ER degradation assay in MCF-7 cells; assay type: cell-based; conditions: for DC50: MCF-7, ER degradation, read-out: MCF7 DC50
ER in MCF-7 cells, sequence (P03372 whole entry): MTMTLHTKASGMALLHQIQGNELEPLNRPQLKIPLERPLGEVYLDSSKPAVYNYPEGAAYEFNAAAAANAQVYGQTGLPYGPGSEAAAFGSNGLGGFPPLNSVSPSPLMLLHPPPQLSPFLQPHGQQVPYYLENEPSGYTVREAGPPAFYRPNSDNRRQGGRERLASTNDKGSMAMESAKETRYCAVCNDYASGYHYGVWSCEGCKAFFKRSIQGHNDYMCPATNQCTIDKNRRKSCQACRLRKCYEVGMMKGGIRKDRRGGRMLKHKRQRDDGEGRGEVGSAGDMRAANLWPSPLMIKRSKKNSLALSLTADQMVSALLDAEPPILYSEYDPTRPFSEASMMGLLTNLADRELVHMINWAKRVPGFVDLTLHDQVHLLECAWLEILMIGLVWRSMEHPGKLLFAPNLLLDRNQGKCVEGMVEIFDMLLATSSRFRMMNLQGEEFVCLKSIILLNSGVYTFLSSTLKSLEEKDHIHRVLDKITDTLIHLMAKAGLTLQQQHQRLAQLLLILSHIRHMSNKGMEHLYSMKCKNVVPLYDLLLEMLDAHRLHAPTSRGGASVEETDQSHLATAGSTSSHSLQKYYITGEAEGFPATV

[2] = test system: MCF-7 cells; assay: CellTiter-Glo (CTG) cell proliferation assay in MCF-7 cells; assay type: cell-based; conditions: Homo sapiens, MCF7, 144 h, MCF-7 cell proliferation, Day 6
From the text: CellTiter-Glo® (CTG) Assays in MCF-7 and T47D Cell Lines.
In vitro Assay: MCF-7 and T47D CTG assay

[3] = MCF7, MCF-7, maximal ER degradation, 16 hrs treatment, read-out: MCF7 Dmax
[4] = MCF7, read-out: MCF7 Dmax, MCF-7, maximal ER degradation, 16 hrs treatment

Structure (SMILES)	Dmax [1, 3] [%]	DC50 ([1]; 16 hrs treatment) [µM]	IC50 [2] [µM]	Dmax [1, 4] [%]
COc1cc(N2CC3(CC(CN4CCN5c6ccc7c(c6OC[C@H]5C4)CN([C@H]4CCC(=O)NC4=O)C7=O)C3)C2)c(F)cc1[C@@H]1c2ccc(O)cc2CC[C@@H]1c1ccccc1 [Compound A185, (S)-3-((R)-7-((2-(2-fluoro-4-((1S,2S)-6-hydroxy-2-phenyl-1,2,3,4-tetrahydronaphthalen-1-yl)-5-methoxyphenyl)-2-aza-spiro[3.3]heptan-6-yl)methyl)-1-oxo-1,3,5,5a,6,7,8,9-octa-hydro-2H-pyrazino[1′,2′:4,5] [1,4]oxazino[2,3-e]isoindol-2-yl)piperidine-2,6-dione]	> 75	< 0.001	> 0.1	–
COc1cc(N2CCC(CCN3CCC4(CC3)COc3c4ccc4c3CN([C@H]3CCC(=O)NC3=O)C4=O)CC2)c(F)cc1[C@@H]1c2ccc(O)cc2CC[C@@H]1c1ccccc1 [Compound A187, (S)-3-(1′-(2-(1-(2-fluoro-4-((1S,2S)-6-hydroxy-2-phenyl-1,2,3,4-tetrahydronaphthalen-1-yl)-5-methoxyphenyl)piperidin-4-yl)ethyl)-6-oxo-6,8-dihydro-2H,7H-spiro[furo[2,3-e]iso-indole-3,4′-piperidin]-7-yl)-piperidine-2,6-dione]	–	< 0.001	0.01 to 0.1	> 75
COc1cc(N2CCC(CCN3CCN4c5cc6c(cc5OC[C@@H]4C3)C(=O)N([C@H]3CCC(=O)NC3=O)C6)CC2)c(F)cc1[C@@H]1c2ccc(O)cc2CC[C@@H]1c1ccccc1 [Compound A188, (S)-3-((S)-3-(2-(1-(2-fluoro-4-((1S,2S)-6-hydroxy-2-phenyl-1,2,3,4-tetrahydronaphthalen-1-yl)-5-methoxyphenyl)piper-idin-4-yl)ethyl)-8-oxo-1,2,3,4,4a,5,8,10-octahydro-9H-pyr-azino[1′,2′:4,5][1,4]oxazino [2,3-f]isoindol-9-yl)piperidine-2,6-dione]	> 75	< 0.001	0.01 to 0.1	–
COc1cc(N2CCC(CCN3CCC4(CC3)COc3cc5c(cc34)CN([C@H]3CCC(=O)NC3=O)C5=O)CC2)c(F)cc1[C@@H]1c2ccc(O)cc2CC[C@@H]1c1ccccc1 [Compound A189, (S)-3-(1′-(2-(1-(2-fluoro-4-((1S,2S)-6-hydroxy-2-phenyl-1,2,3,4-tetrahydronaphthalen-1-yl)-5-methoxyphenyl)piper-idin-4-yl)ethyl)-7-oxo-5,7-dihydro-2H,6H-spiro[furo[2,3-f]isoindole-3,4′-piperidin]-6-yl)piperidine-2,6-dione]	–	< 0.001	0.01 to 0.1	> 75
COc1c([C@@H]2c3ccc(O)cc3CC[C@@H]2c2ccccc2)ccc(N2CCC(CN3CCC4(CC3)COc3cc5c(cc34)CN([C@H]3CCC(=O)NC3=O)C5=O)CC2)c1F [Compound A191, (S)-3-(1′-((1-(2-fluoro-4-((1S, 2S)-6-hydroxy-2-phenyl-1,2,3,4-tetrahydronaphthalen-1-yl)-3-methoxyphenyl)piper-idin-4-yl)methyl)-7-oxo-5,7-dihydro-2H,6H-spiro[furo[2,3-f]isoindole-3,4′-piperidin]-6-yl)piperidine-2,6-dione]	–	< 0.001	0.01 to 0.1	50 to 75
COC1(CCN2CCN3c4ccc5c(c4OC[C@H]3C2)CN([C@H]2CCC(=O)NC2=O)C5=O)CCN(c2ccc([C@@H]3c4ccc(O)cc4CC[C@@H]3c3ccccc3)cc2)CC1 [Compound A192, (S)-3-((R)-7-(2-(1-(4-((1R,2S)-6-hydroxy-2-phenyl-1,2,3,4-tetrahydronaphthalen-1-yl)-phenyl)-4-methoxypiperidin-4-yl)cthyl)-1-oxo-1,3,5,5a,6,7,8,9-octahydro-2H-pyrazino[1′,2′: 4,5][1,4]oxazino[2,3-e]isoindol-2-yl)piperidine-2,6-dione]	> 75	< 0.001	> 0.1	–
COC1(CCN2CCC3(CC2)COc2c3ccc3c2CN([C@H]2CCC(=O)NC2=O)C3=O)CCN(c2ccc([C@@H]3c4ccc(O)cc4CC[C@@H]3c3ccccc3)cc2)CC1 [Compound A193, (S)-3-(1′-(2-(1-(4-((1R,2S)-6-hydroxy-2-phenyl-1,2,3,4-tetra-hydronaphthalen-1-yl)phenyl)-4-methoxypiperidin-4-yl)-ethyl)-6-oxo-6,8-dihydro-2H, 7H-spiro[furo[2,3-e]isoindole-3,4′-piperidin]-7-yl)piperidine-2,6-dione]	–	< 0.001	0.01 to 0.1	> 75
O=C1CC[C@H](N2Cc3cc4c(cc3C2=O)OC[C@@H]2CN(CC3CC5(CCN(c6cnc(C7c8ccc(O)cc8CCC7c7ccccc7)cn6)CC5)C3)CCN42)C(=O)N1 (stereo partly drawn) [Compound A194, (3S)-3-((4aS)-3-((7-(5-(6-hydroxy-2-phenyl-1,2,3,4-tetra-hydronaphthalen-1-yl)pyrazin-2-yl)-7-azaspiro[3.5]nonan-2-yl)methyl)-8-oxo-1,2,3,4,4a,5,8,10-octahydro-9H-pyrazino [1′,2′:4,5][1,4]oxazino[2,3-f]isoindol-9-yl)piperidine-2,6-dione]	> 75	0.001 to 0.01	> 0.1	–
O=C1CC[C@H](N2Cc3c(ccc4c3OC[C@H]3CN(CC5CC6(CCN(c7cnc(C8c9ccc(O)cc9CCC8c8ccccc8)cn7)CC6)C5)CCN43)C2=O)C(=O)N1 (stereo partly drawn) [Compound A195, (3S)-3-((5aR)-7-((7-(5-(6-hydroxy-2-phenyl-1,2,3,4-tetra-hydronaphthalen-1-yl)pyrazin-2-yl)-7-azaspiro[3.5]nonan-2-yl)methyl)-1-oxo-1,3,5,5a,6,7,8,9-octahydro-2H-pyrazino [1′,2′:4,5][1,4]oxazino[2,3-e]isoindol-2-yl)piperidine-2,6-dione]	> 75	< 0.001	> 0.1	–
COc1c([C@@H]2c3ccc(O)cc3CC[C@@H]2c2ccccc2)ccc(N2CCC3(CC2)CC(CN2CCN4c5ccc6c(c5OC[C@H]4C2)CN([C@H]2CCC(=O)NC2=O)C6=O)C3)c1F [Compound A196, (S)-3-((R)-7-((7-(2-fluoro-4-((1S,2S)-6-hydroxy-2-phenyl-1,2,3,4-tetrahydronaphthalen-1-yl)-3-methoxyphenyl)-7-aza-spiro[3.5]nonan-2-yl)methyl)-1-oxo-1,3,5,5a,6,7,8,9-octa-hydro-2H-pyrazino[1′,2′:4,5] [1,4]oxazino[2,3-e]isoindol-2-yl)piperidine-2,6-dione]	> 75	< 0.001	< 0.01	–
COc1c([C@@H]2c3ccc(O)cc3CC[C@@H]2c2ccccc2)ccc(N2CCC3(CC2)CC(CN2CCN4c5cc6c(cc5OC[C@@H]4C2)C(=O)N([C@H]2CCC(=O)NC2=O)C6)C3)c1F [Compound A197, (S)-3-((S)-3-((7-(2-fluoro-4-((1S,2S)-6-hydroxy-2-phenyl-1,2,3,4-tetrahydronaphthalen-1-yl)-3-methoxyphenyl)-7-aza-spiro[3.5]nonan-2-yl)methyl)-8-oxo-1,2,3,4,4a,5,8,10-octa-hydro-9H-pyrazino[1′,2′:4,5] [1,4]oxazino[2,3-f]isoindol-9-yl)piperidine-2,6-dione]	> 75	< 0.001	0.01 to 0.1	–
COc1c([C@@H]2c3ccc(O)cc3CC[C@@H]2c2ccccc2)ccc(N2CCC3(CC2)CC(CN2CCC4(CC2)COc2c4ccc4c2CN([C@H]2CCC(=O)NC2=O)C4=O)C3)c1F [Compound A198, (S)-3-(1′-((7-(2-fluoro-4-((1S, 2S)-6-hydroxy-2-phenyl-1,2,3,4-tetrahydronaphthalen-1-yl)-3-methoxyphenyl)-7-aza-spiro[3.5]nonan-2-yl)methyl)-6-oxo-6,8-dihydro-2H,7H-spiro[furo[2,3-e]isoindole-3,4′-piperidin]-7-yl)piperidine-2,6-dione]	–	< 0.001	0.01 to 0.1	50 to 75
COc1c([C@@H]2c3ccc(O)cc3CC[C@@H]2c2ccccc2)ccc(N2CCC3(CC2)CC(CN2CCC4(CC2)COc2cc5c(cc24)CN([C@H]2CCC(=O)NC2=O)C5=O)C3)c1F [Compound A199, (S)-3-(1′-((7-(2-fluoro-4-((1S, 2S)-6-hydroxy-2-phenyl-1,2,3,4-tetrahydronaphthalen-1-yl)-3-methoxyphenyl)-7-aza-spiro[3.5]nonan-2-yl)methyl)-7-oxo-5,7-dihydro-2H,6H-spiro[furo[2,3-f]isoindole-3,4′-piperidin]-6-yl)piperidine-2,6-dione]	–	< 0.001	< 0.01	50 to 75
COc1cc(N2CCC3(CC2)CC(CN2CCC4(CC2)COc2c4cc(Cl)c4c2CN([C@H]2CCC(=O)NC2=O)C4=O)C3)c(F)cc1[C@@H]1c2ccc(O)cc2CC[C@@H]1c1ccccc1 [Compound A200, (S)-3-(5-chloro-1′-((7-(2-fluoro-4-((1S,2S)-6-hydroxy-2-phenyl-1,2,3,4-tetrahydro-naphthalen-1-yl)-5-methoxy-phenyl)-7-azaspiro[3.5]nonan-2-yl)methyl)-6-oxo-6,8-dihydro-2H,7H-spiro[furo[2,3-e]isoindole-3,4′-piperidin]-7-yl)piperidine-2,6-dione]	–	< 0.001	< 0.01	> 75
O=C1CC[C@H](N2Cc3c(ccc4c3OCC43CCN(CC4CC5(CCN(c6cnc(C7c8ccc(O)cc8CCC7c7ccccc7)cn6)CC5)C4)CC3)C2=O)C(=O)N1 (stereo partly drawn) [Compound A201, (3S)-3-(1′-((7-(5-(6-hydroxy-2-phenyl-1,2,3,4-tetrahydro-naphthalen-1-yl)pyrazin-2-yl)-7-azaspiro[3.5]nonan-2-yl)-methyl)-6-oxo-6,8-dihydro-2H, 7H-spiro[furo[2,3-e]isoindole-3,4′-piperidin]-7-yl)piperidine-2,6-dione]	–	< 0.001	> 0.1	50 to 75
